Test results published in PMC7037546, “High Cell Selectivity and Bactericidal Mechanism of Symmetric Peptides Centered on D-Pro–Gly Pairs” (International Journal of Molecular Sciences, 2020).
Values after ≈ are worked out from the molar mass of the structure shown. Non-standard residues stand in square brackets, D forms with d. Residues, ends and D or L forms follow the SMILES beside them. No end group written: not given here.

Legend:
[1] = test system: Escherichia coli ATCC25922; test: microbe, parasite or virus in culture; conditions: ATCC25922, 16 h
Description: (§1) The antimicrobial activity of the designed peptides was examined using the micro-dilution method described previously. The bacteria were cultured for 16 h in MHB at 37 °C, and the microbial suspension was diluted to a final concentration of 10^5 colony-forming units (CFU)/mL. Then, 50 µL of MHB containing different concentrations peptides (0.25–256 µM) was mixed with 50 µL of bacterial solution, and the mixture was added to a 96-well plate. […] The assays were performed three times.

E. coli K88 = conditions: micro-dilution in MHB, 10^5 CFU/mL, 16 h, OD 492 nm, performed three times
Description: as §1

[2] = test system: Enterococcus faecalis ATCC29212; conditions: ATCC29212, 16 h
Description: as §1

Gram-negative bacteria = conditions: 16 h
Description: as §1

[3] = test system: Klebsiella pneumonia CMCC46117; conditions: CMCC46117, 16 h
Description: as §1

[4] = test system: Pseudomonas aeruginosa ATCC27853; conditions: ATCC27853, 16 h
Description: as §1

S. aureus ATCC29213 = conditions: ATCC29213, 16 h
Description: as §1

[5] = test system: Salmonella Pullorum NCTC5776; conditions: NCTC5776, 16 h
Description: as §1

[6] = test system: Staphylococcus aureus ATCC25923; conditions: ATCC25923, 16 h
Description: as §1

[7] = test system: methicillin-resistant S. aureus ATCC43300; conditions: ATCC43300, 16 h
Description: as §1

Gram-positive bacteria = test: Geometric mean of MICs and therapeutic index, Gram (+); assay type: cell-based; conditions: geometric mean over the Gram-positive strains of Table 2; 256 μM used when no activity at 128 μM
Description: as §1

RAW 264.7 cells = test: Cytotoxicity, CCK-8 assay; assay type: cell-based, murine; conditions: 64 μM peptide, 16 h, CCK-8, OD 450 nm
Description: (§2) The cytotoxicity was detected according to a CCK-8 assay as described previously. Briefly, RAW 264.7 and HEK293T cells were placed into 96-well plates at a density of 1.0–2.0 × 10^5, and then cultured for 16 h under conditions of 5% CO2. Then, two-fold diluted peptides in DMEM were added to the plates. After 16 h of culturing, CCK-8 (10%, v/v) was put into each well containing cell culture, and mixtures were cultured for 2 h. The cytotoxicity assay was examined by measuring the OD of the mixtures at 450 nm (Microplate reader, TECAN GENios F129004, Tecan, Salzburg, Austria). The assays were performed three times.

HEK293T cells = test: Cytotoxicity, CCK-8 assay; assay type: cell-based, human; conditions: 64 μM peptide, 16 h, CCK-8, OD 450 nm
Description: as §2

E. coli ATCC25922 [8] = assay type: cell-based, Escherichia coli; conditions: for MIC after pH treatment, pH 4 / MIC after pH treatment, pH 6 / MIC after pH treatment, pH 8 / MIC after pH treatment, pH 10: ATCC25922, 1 h; for MIC after temperature treatment, 0 °C / MIC after temperature treatment, 37 °C / MIC after temperature treatment, 100 °C / MIC in the presence of FeCl3 / MIC in the presence of KCl / MIC in the presence of MgCl2 / MIC in the presence of NH4Cl / MIC in the presence of NaCl / MIC in the presence of ZnCl2 / MIC, Control / MIC, Control (pH 7): ATCC25922, 16 h
Description: as §1
The salt, temperature, and pH sensitivities of designed peptides were determined by MIC assay as described previously. For the salt sensitivity assay, peptides were diluted in deionized water containing different salts, and mixed with E. coli ATCC25922 (10^5 CFU/mL). The final physiological concentrations of different salts were as follows: 150 mM NaCl, 4.5 mM KCl, 6 μM NH4Cl, 1 mM MgCl2, 8 μM ZnCl2, and 4 μM FeCl3. For temperature sensitivity, peptides were cooled on ice for 10 min, and incubated at 37 °C and 100 °C for 30 min. For pH sensitivity, peptides were treated with different pH for 1 h. Briefly, peptides were diluted in deionized water, and the pH of the solution was adjusted to 4.0, 6.0, 8.0, and 10.0 with HCl or NaOH. The subsequent steps were the same as for the MIC measurements. These tests were performed three times.

E. coli ATCC25922 [9] = conditions: ATCC25922, 16 h
Description: The combined antibacterial effect of peptides with other antibiotics was evaluated by checkerboard assay as described previously. […] Subsequently, each peptide at the same concentration was added to the longitudinal column of wells, and each antibiotic at the same concentration was added to the horizontal row of wells. A suspension at 10^5 CFU/mL was put into each well for 16 h at 37 °C. Each assay was performed three times.

What does the source list for `CC(C)C[C@H](NC(=O)[C@H](CC(C)C)NC(=O)[C@H](CCCNC(=N)N)NC(=O)[C@H](CC(C)C)NC(=O)[C@H](CC(C)C)NC(=O)[C@H](CCCNC(=N)N)NC(=O)[C@H](CCCNC(=N)N)NC(=O)CNC(=O)[C@H]1CCCN1C(=O)[C@H](CCCNC(=N)N)NC(=O)[C@H](CCCNC(=N)N)NC(=O)[C@H](CC(C)C)NC(=O)[C@H](CC(C)C)NC(=O)[C@H](CCCNC(=N)N)NC(=O)[C@H](CC(C)C)NC(=O)[C@@H](N)CC(C)C)C(N)=O` [LRpG] (H-LLRLLRR[dP]GRRLLRLL-NH2)?
MIC [1]: 2 µM (≈ 4.03 µg/mL); MIC (E. coli K88): 2 µM (≈ 4.03 µg/mL); MIC [2]: 32 µM (≈ 64.4 µg/mL); GM (geometric mean of MICs), Gram (−) (Gram-negative bacteria): 3.5 µM; MIC [3]: 4 µM (≈ 8.05 µg/mL); MIC [4]: 8 µM (≈ 16.1 µg/mL); MIC (S. aureus ATCC29213): 16 µM (≈ 32.2 µg/mL); MIC [5]: 4 µM (≈ 8.05 µg/mL); MIC [6]: 16 µM (≈ 32.2 µg/mL); MIC [7]: 16 µM (≈ 32.2 µg/mL); GM (geometric mean of MICs), Gram (+) (Gram-positive bacteria): 19.0 µM; cell survival rate (RAW 264.7 cells): 92%; cell survival rate (HEK293T cells): 93%; MIC after pH treatment, pH 4 (E. coli ATCC25922 [8]): 2 µM; MIC after pH treatment, pH 6 (E. coli ATCC25922 [8]): 2 µM; MIC after pH treatment, pH 8 (E. coli ATCC25922 [8]): 2 µM; MIC after pH treatment, pH 10 (E. coli ATCC25922 [8]): 4 µM; MIC after temperature treatment, 0 °C (E. coli ATCC25922 [8]): 2 µM (≈ 4.03 µg/mL); MIC after temperature treatment, 37 °C (E. coli ATCC25922 [8]): 2 µM (≈ 4.03 µg/mL); MIC after temperature treatment, 100 °C (E. coli ATCC25922 [8]): 2 µM (≈ 4.03 µg/mL); MIC in the presence of FeCl3 (E. coli ATCC25922 [8]): 2 µM; MIC in the presence of KCl (E. coli ATCC25922 [8]): 2 µM; MIC in the presence of MgCl2 (E. coli ATCC25922 [8]): 2 µM; MIC in the presence of NH4Cl (E. coli ATCC25922 [8]): 2 µM; MIC in the presence of NaCl (E. coli ATCC25922 [8]): 8 µM; MIC in the presence of ZnCl2 (E. coli ATCC25922 [8]): 2 µM; MIC, Control (E. coli ATCC25922 [8]): 2 µM (≈ 4.03 µg/mL); MIC, Control (pH 7) (E. coli ATCC25922 [8]): 2 µM; FICI in combination with Cefotaxime (E. coli ATCC25922 [9]): 1; FICI in combination with Chloramphenicol (E. coli ATCC25922 [9]): 0.75; FICI in combination with Ciprofloxacin (E. coli ATCC25922 [9]): 0.625; FICI in combination with Streptomycin (E. coli ATCC25922 [9]): 0.5; FICI in combination with other conventional antibiotics (additive effect) (E. coli ATCC25922 [9]): 0.625-1

For LLRLLRRGGRRLLRLL-NH2 [LRGG], which MIC [1] is on record?
The MIC was 2 µM.

And the MIC (E. coli K88)?
The MIC was 4 µM.

And the MIC [2]?
Its MIC is 32 µM.

And the “GM (geometric mean of MICs), Gram (−)” value (Gram-negative bacteria)?
Its value is 4.6 µM.

What about the MIC [3] of the same compound?
The MIC was 8 µM.

What about the MIC [4] of the same compound?
The MIC was 8 µM.

And the MIC (S. aureus ATCC29213)?
The MIC was 16 µM.

What about the MIC [5] of the same compound?
Its MIC is 4 µM.

What about the MIC [6] of the same compound?
Its MIC is 16 µM.

And the MIC [7]?
Its MIC is 32 µM.

What about the “GM (geometric mean of MICs), Gram (+)” value (Gram-positive bacteria) of the same compound?
The value was 22.6 µM.

And the cell survival rate (RAW 264.7 cells)?
The cell survival rate was 84%.

What about the cell survival rate (HEK293T cells) of the same compound?
The cell survival rate was 91%.

What about the “MIC after pH treatment, pH 4” value (E. coli ATCC25922 [8]) of the same compound?
The value was 2 µM.

What about the “MIC after pH treatment, pH 6” value (E. coli ATCC25922 [8]) of the same compound?
The value was 2 µM.

And the “MIC after pH treatment, pH 8” value (E. coli ATCC25922 [8])?
Its value is 2 µM.

And the “MIC after pH treatment, pH 10” value (E. coli ATCC25922 [8])?
The value was 4 µM.

What about the “MIC after temperature treatment, 0 °C” value (E. coli ATCC25922 [8]) of the same compound?
The value was 2 µM.

And the “MIC after temperature treatment, 37 °C” value (E. coli ATCC25922 [8])?
The value was 2 µM.

What about the “MIC after temperature treatment, 100 °C” value (E. coli ATCC25922 [8]) of the same compound?
The value was 2 µM.

And the “MIC in the presence of FeCl3” value (E. coli ATCC25922 [8])?
The value was 2 µM.

What about the “MIC in the presence of KCl” value (E. coli ATCC25922 [8]) of the same compound?
Its value is 2 µM.

And the “MIC in the presence of MgCl2” value (E. coli ATCC25922 [8])?
Its value is 4 µM.

And the “MIC in the presence of NH4Cl” value (E. coli ATCC25922 [8])?
The value was 2 µM.

What about the “MIC in the presence of NaCl” value (E. coli ATCC25922 [8]) of the same compound?
Its value is 8 µM.

What about the “MIC in the presence of ZnCl2” value (E. coli ATCC25922 [8]) of the same compound?
Its value is 2 µM.

What about the “MIC, Control” value (E. coli ATCC25922 [8]) of the same compound?
Its value is 2 µM.

What about the “MIC, Control (pH 7)” value (E. coli ATCC25922 [8]) of the same compound?
Its value is 2 µM.
